Assay [1] deals with T1, AT2 receptor of angiotensin II (Oryctolagus cuniculus, UniProt G1T351).
T1 construct: A fresh membrane preparation obtained from rabbit's uterus is used; from tissue; host or cells: uterus membranes of estradiol-treated rabbits
T1 sequence (G1T351 1-363): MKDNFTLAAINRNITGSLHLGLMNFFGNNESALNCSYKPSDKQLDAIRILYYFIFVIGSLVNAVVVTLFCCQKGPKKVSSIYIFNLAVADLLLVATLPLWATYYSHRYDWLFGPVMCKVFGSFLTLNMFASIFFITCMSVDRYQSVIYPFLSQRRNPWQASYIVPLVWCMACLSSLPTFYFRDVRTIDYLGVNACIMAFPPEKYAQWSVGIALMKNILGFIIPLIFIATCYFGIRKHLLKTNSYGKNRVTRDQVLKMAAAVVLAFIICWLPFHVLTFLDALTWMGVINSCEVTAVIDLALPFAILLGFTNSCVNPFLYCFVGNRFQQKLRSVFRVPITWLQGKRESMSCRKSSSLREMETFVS
In words: Test on the AT2 receptor of angiotensin II (displacement of 125I angiotensin II, rabbit uterus membranes). In kind it is binding. The procedure: 2) Test on the AT2 receptor of angiotensin II
The tissue is ground up in a polytron in a 50 mM Tris buffer pH 7.4, and the grinding is followed by 3 centrifugations at 30,000 g for 15 minutes, with intermediate take up of the pellets in the Tris buffer pH 7.4.
The homogenate obtained is preincubated for 20 minutes at 25° C. in the presence of 10 mM dithiothreitol, then brought back to 0°-4° C.
The product is first tested at 3.10^-5 M three times. When the tested product displaces more than 50% of the radioactivity specifically bound to the receptor, it is tested again according to a range of 7 concentrations in order to determine the concentration which inhibits by 50% the radioactivity specifically bound to the receptor. In this way the 50% inhibitory concentration is determined.
(§1) After incubation at 25° C. for 150 minutes, placing in a water-bath at 0° C. for 5 minutes, filtration under vacuum, and rinsing with Tris buffer pH 7.4, the radioactivity is counted in the presence of a scintillating solid.
A general note: Displacement assays read how much labelled ligand stays bound in the presence of the test substance.

Assay [2] addresses T2, AT1 receptor of angiotensin II (Rattus norvegicus, UniProt P25095).
T2 construct: A fresh membrane preparation obtained from rat's liver is used; from tissue; host or cells: rat liver membranes
T2 sequence (P25095 1-359): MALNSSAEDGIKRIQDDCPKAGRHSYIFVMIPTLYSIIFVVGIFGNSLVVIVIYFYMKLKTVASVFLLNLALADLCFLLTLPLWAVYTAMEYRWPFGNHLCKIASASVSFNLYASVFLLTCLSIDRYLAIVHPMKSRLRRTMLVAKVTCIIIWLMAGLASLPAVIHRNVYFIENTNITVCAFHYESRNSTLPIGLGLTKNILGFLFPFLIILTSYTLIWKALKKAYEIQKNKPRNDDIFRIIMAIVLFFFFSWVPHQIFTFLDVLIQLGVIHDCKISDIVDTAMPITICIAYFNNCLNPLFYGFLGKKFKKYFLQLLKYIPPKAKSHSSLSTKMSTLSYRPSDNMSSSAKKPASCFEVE
Briefly: Test on the AT1 receptor of angiotensin II (displacement of 125I angiotensin II, rat liver membranes). It is filed as binding. The procedure: 1 - Test on the AT1 -receptor of angiotensin II
A fresh membrane preparation obtained from rat's liver is used. The tissue is ground up in a polytron in a 50 mM Tris buffer pH 7.4, the grinding is followed by 3 centrifugations at 30,000 g for 15 minutes with intermediate take up of the pellets in the Tris buffer pH 7.4.
(The product is first tested with 3×10^-5 M three times). When the tested product displaces more than 50% of the radioactivity specifically bound to the receptor, it is tested again according to a range of 7 concentrations in order to determine the concentration which inhibits by 50% the radioactivity specifically bound to the receptor. In this way the 50% inhibitory concentration is determined).
as §1

The mark [3] stands for this setting: rabbit uterus membrane (estradiol pre-treated), 125I angiotensin II, 25° C., 150 minutes, read-out: AT2 Receptor IC50.
Where [4] appears, read: rat liver membrane, 125I angiotensin II, 25° C., 150 minutes, read-out: AT1 Receptor IC50.
The mark [5] stands for this setting: products P1 to P13, expressed in nM, read-out: On AT2 receptor IC50.
Setting [6] is: products P1 to P13, expressed in nM, read-out: On AT1 receptor IC50.

Structures can show the parent of a compound that is named as a salt. Where two headings read alike, the source gives them in different places.

The IC50 is the concentration that inhibits the measured activity by half. Turning to `CCCCc1nc(SC)c(C(C)(O)C(=O)O)n1Cc1ccc(-c2ccccc2S(=O)(=O)NC(=O)NCCC)cc1` (stereo not drawn) [Example 9, 2-butyl alpha-hydroxy alpha-methyl 4-(methylthio) 1-[(2'-((((propylamino)carbonyl)amino)sulphonyl) (1,1'-biphenyl) 4-yl)methyl] 1H-imidazole 5-acetic acid], the results for the IC50 in assay [1] (setting [3]) and in assay [2] (setting [4]) were 8.5 nM and 3.4 nM, respectively.

Regarding `CCCCc1nc(SC)c(C(C)(O)C(=O)O)n1Cc1ccc(-c2ccccc2S(=O)(=O)NC(=O)NCc2ccccc2)cc1` (stereo not shown) [Example 11], the IC50 in assay [1] (setting [3]) worked out at 1.6 nM; in assay [2] (setting [4]), 24 nM.

On to `CCCCc1nc(SC)c(C(C)(O)C(=O)O)n1Cc1ccc(-c2ccccc2S(=O)(=O)NC(=O)NCC2CCCCC2)cc1` (stereo not drawn) [Example 13, 2-butyl 1-[(2'-(((((cyclohexylmethyl)amino)arbonyl)amino)sulphonyl) (1,1'-biphenyl) 4-yl)methyl] alpha-hydroxy alpha-methyl 4-(methylthio) 1H-imidazole 5-acetic acid], for which the IC50 in assay [1] (setting [3]) was 1.9 nM; in assay [2] (setting [4]), 6.3 nM.

Turning to `CCCc1nc(SC)c(C(O)C(=O)O)n1Cc1ccc(-c2ccccc2S(=O)(=O)NC(=O)NCc2ccccc2)cc1` (stereo not shown) [Example 21], the concentration for half-maximal inhibition (IC50) in assay [1] (setting [3]) was determined as 6.5 nM; in assay [2] (setting [4]), 2.5 nM.

Take `CCCc1nc(SC)c(C(O)(C(=O)O)c2ccccc2)n1Cc1ccc(-c2ccccc2S(=O)(=O)NC(=O)NCc2ccccc2)cc1` (stereo not drawn) [Example 34, alpha-hydroxy 4-(methylthio) alpha-phenyl 1-((2'-(((((phenylmethyl)amino)carbonyl)amino)sulphonyl) (1,1'-biphenyl) 4-yl)methyl) 2-propyl 1H-imidazole 5-acetic acid]: the IC50 in assay [1] (setting [3]) came to 2.1 nM; in assay [2] (setting [4]), 0.7 nM.

Consider `CCc1nc(SC)c(C(=O)O)n1Cc1ccc(-c2ccccc2S(=O)(=O)NC(=O)NCc2ccccc2)cc1` [Example 44, 2-ethyl 4-(methylthio) 1-((2'-(((((phenylmethyl)amino)carbonyl)amino)sulphonyl) (1,1'-biphenyl) 4-yl)methyl) 1H-imidazole 5-carboxylic acid], for which the 50% inhibitory concentration (IC50) in assay [2] (setting [4]) is 0.06 nM.

Take `CCCc1nc(SC(F)F)c(C(=O)O)n1Cc1ccc(-c2ccccc2S(=O)(=O)NC(=O)CCC2CCCC2)cc1` [Example 54]: the IC50 in assay [1] (setting [3]) was found to be 2.1 nM.

Consider `CCCc1nc(SC(F)F)c(C(=O)O)n1Cc1ccc(-c2ccccc2S(=O)(=O)NC(=O)NCCC2=CCCCC2)cc1` [Example 56, 1-((2'-(((((2-cyclohexen-1-yl-ethyl)amino)carbonyl)amino)sulphonyl) (1,1'-biphenyl) 4-yl)methyl) 4-((difluoromethyl)thio) 2-propyl 1H-imidazole 5-carboxylic acid], for which the half-maximal inhibitory concentration (IC50) in assay [1] (setting [3]) stood at 5.8 nM.

Turning to `CCCCc1nc(Cl)c(C(=O)O)n1Cc1ccc(-c2ccccc2S(=O)(=O)NC(=O)NCc2ccccc2)cc1` [Example 59], the IC50 in assay [2] (setting [4]) is 0.08 nM.

In the case of `CCCc1nc(SC)c(C(=O)O)n1Cc1ccc(-c2ccccc2S(=O)(=O)NC(=O)Nc2ccc(C)cc2)cc1` [Example 63, 1-((2'-(((((4-methylphenyl)amino)carbonyl)amino)sulphonyl) (1,1'-biphenyl) 4-yl)methyl) 4-(methylthio) 2-propyl 1H-imidazole 5-carboxylic acid], the IC50 in assay [1] (setting [3]) was found to be 3.5 nM.

As to `CCc1nc(SC)c(C(=O)O)n1Cc1ccc(-c2ccccc2S(=O)(=O)NC(=O)NCC2CCCCC2)cc1` [Example 69, potassium 1-((2'-(((((cyclohexylmethyl)amino)carbonyl)amino)sulphonyl) (1,1'-biphenyl 4-yl)methyl) 2-ethyl 4-(methylthio) 1H-imidazole 5-carboxylate (potassium salt)], the half-maximal inhibitory concentration (IC50) in assay [1] (setting [3]) was 1.3 nM.

With `CCCCc1nc(SC)c(C(=O)O)n1Cc1ccc(-c2ccccc2S(=O)(=O)NC(=O)NCc2ccccc2)cc1` [Example P2, 2-butyl 4-(methylthio) 1-[(2'-(((((phenylmethyl)amino)carbonyl)amino)sulphonyl) (1,1'-biphenyl) 4-yl)methyl] 1H-imidazole 5-carboxylic acid], the half-inhibitory concentration (IC50) was determined as 14 nM in assay [1] (setting [5]) and 0.1 nM in assay [2] (setting [6]).

As to `CCCCc1nc(SC)c(C(=O)O)n1Cc1ccc(-c2ccccc2S(=O)(=O)NC(=O)NCC(C)c2ccccc2)cc1` (stereo not drawn) [Example P3, 2-butyl 4-(methylthio) 1-[(2'-(((((1-beta-phenylpropyl)amino)carbonyl)amino)sulphonyl) (1,1'-biphenyl) 4-yl)methyl] 1H-imidazole 5-carboxylic acid], the concentration for half-maximal inhibition (IC50) came to 11 nM in assay [1] (setting [5]) and 1.1 nM in assay [2] (setting [6]).

In the case of `CCCCc1nc(SC)c(C(=O)O)n1Cc1ccc(-c2ccccc2S(=O)(=O)NC(=O)NCCCCc2ccccc2)cc1` [Example P4, 2-butyl 4-(methylthio) 1-[(^2 '-(((((1-(4-phenylbutyl))amino)carbonyl)amino)sulphonyl) (1,1'-biphenyl) 4-yl)methyl] 1H-imidazole 5-carboxylic acid], the IC50 came to 47 nM in assay [1] (setting [5]) and 0.5 nM in assay [2] (setting [6]).

On to `CCCCc1nc(SC)c(C(=O)O)n1Cc1ccc(-c2ccccc2S(=O)(=O)NC(=O)NCc2ccc(OC)cc2)cc1` [Example P5, 2-butyl 1-[(2'-((((((4-methoxy)phenylmethyl)amino)carbonyl)amino)sulphonyl) (1,1'-biphenyl) 4-yl)methyl] 4-methylthio 1H-imidazole 5-carboxylic acid], for which the IC50 in assay [1] (setting [5]) was 25 nM; in assay [2] (setting [6]), 0.3 nM.

Turning to `CCCCc1nc(SC)c(C(=O)O)n1Cc1ccc(-c2ccccc2S(=O)(=O)NC(=O)NCc2ccc(F)cc2)cc1` [Example P6, 2-butyl 1-[(2'-((((((4-fluoro)phenylmethyl)amino)carbonyl)amino)sulphonyl) (1,1,1-biphenyl) 4-yl)methyl] 4-methylthio 1H-imidazole 5-carboxylic acid], the IC50 in assay [1] (setting [5]) worked out at 10 nM; in assay [2] (setting [6]), 0.27 nM.

Turning to `CCCCc1nc(SC)c(C(=O)O)n1Cc1ccc(-c2ccccc2S(=O)(=O)NC(=O)NC(Cc2ccccc2)C(=O)O)cc1` (stereo not shown) [Example P7, 2-butyl 1-[(2'-(((((1-(1-carboxy 2-phenyl)ethyl)amino)carbonyl)amino)sulphonyl) (1,1'-biphenyl) 4-yl)methyl] 4-methylthio 1H-imidazole 5-carboxylic acid], the figures for the IC50 in assay [1] (setting [5]) and in assay [2] (setting [6]) were 49 nM and 0.4 nM, respectively.

With `CCCCc1nc(SC)c(C(=O)O)n1Cc1ccc(-c2ccccc2S(=O)(=O)NC(=O)OCc2cccs2)cc1` [Example P8, 2-butyl 4-(methylthio) 1-[(2'-((((2-thienyl)methoxycarbonyl)amino)sulphonyl) (1,1'-biphenyl) 4-yl)methyl] 1H-imidazole 5-carboxylic acid], the IC50 turned out to be 17 nM in assay [1] (setting [5]) and 0.14 nM in assay [2] (setting [6]).

On to `CCCCc1nc(SC)c(C(=O)O)n1Cc1ccc(-c2ccccc2S(=O)(=O)NC(=O)OCc2ccsc2)cc1` [Example P9, 2-butyl 4-(methylthio) 1-[(2'-((((3-thienyl)methoxycarbonyl)amino)sulphonyl) (1,1'-biphenyl) 4-yl)methyl] 1H-imidazole 5-carboxylic acid], for which the figures for the IC50 in assay [1] (setting [5]) and in assay [2] (setting [6]) were 53 nM and 0.19 nM, respectively.

Consider `CCCCc1nc(SC)c(C(=O)O)n1Cc1ccc(-c2ccccc2S(=O)(=O)NC(=O)OCC2CC=CCC2)cc1` (stereo not shown) [Example P10, 2-butyl 1-[(2'-((((cyclohexen 4-yl)methoxycarbonyl)amino)sulphonyl) (1,1'-biphenyl) 4-yl)methyl] 4-methylthio 1H-imidazole 5-carboxylic acid], for which the figures for the IC50 in assay [1] (setting [5]) and in assay [2] (setting [6]) were 31 nM and 0.7 nM, respectively.

The values are drawn from US5811445A, “Method of preventing abnormal stimulation of AT1 and AT2 receptors” (Roussel Uclaf, priority 1994, dated 1998).
